Patent publication US20060069132A1, “Azolecarboxamide herbicides” (priority 2004, published 2006)

Tests used:
barnyardgrass = assay: Test A pre-/postemergence herbicide test; format: in vivo, Echinochloa crus-galli
In short: (§1)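 Both application timings were run together: directed soil spray over freshly planted seeds in sandy loam, and runoff spray onto 2–10 cm seedlings. Evaluation after ~10 days in greenhouse used a 0–100 visual scale versus untreated controls.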

large crabgrass = assay: Test A pre-/postemergence herbicide test; format: in vivo, Digitaria sanguinalis
In short: as §1

redroot pigweed = assay: Test A pre-/postemergence herbicide test; format: in vivo, Amaranthus retroflexus
In short: as §1

blackgrass = assay: Test B postemergence herbicide test; format: in vivo, Alopecurus myosuroides
In short: (§2)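 Visual ratings, 0 (no effect) to 100 (complete control), made versus controls after 13–15 d greenhouse. Paddy plants treated at 2-leaf stage; postemergence plants at 1- to 4-leaf stage, 2–18 cm tall.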

[1] = system: small flower umbrella sedge; assay: Test B flooded paddy test; format: in vivo, Cyperus difformis; conditions: 1000 g ai/ha, scale 0 to 100 (0 no effect, 100 complete control)
In short: as §2

bermudagrass = assay: Test C pre-/postemergence herbicide test; format: in vivo, Cynodon dactylon
In short: (§3)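 Emerged plants at the 1- to 4-leaf stage (2–18 cm), or freshly planted seeds, received test chemicals in a non-phytotoxic solvent mixture with surfactant. Response was visually scored against controls after 12 to 14 days in the greenhouse, on a 0 (no effect) to 100 (complete control) scale.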

woolly cupgrass = assay: Test C pre-/postemergence herbicide test; format: in vivo, Eriochloa villosa
In short: as §3

goosegrass = assay: Test C pre-/postemergence herbicide test; format: in vivo, Eleusine indica
In short: as §3

rice = assay: Test C flooded paddy test; format: in vivo, Oryza sativa; conditions: for Plant response rating, Rice: visual rating after 12 to 14 days
In short: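 Postemergence sprays applied to plants 2 to 18 cm tall (1- to 4-leaf stage); paddy species grown to 2-leaf stage under flooding. After 12 to 14 days in greenhouse, visual rating versus untreated controls on 0–100 scale (0 no effect, 100 complete control).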

[2] = Postemergence, 250 g ai/ha, 0 to 100 scale, 0 no effect, 100 complete control
[3] = Postemergence, 1000 g ai/ha, 0 to 100 scale, 0 no effect, 100 complete control
[4] = Preemergence, 1000 g ai/ha, visual rating, 0 to 100 scale (0 no effect, 100 complete control)
[5] = preemergence, 250 g ai/ha, visual injury, 0 to 100 scale (0 no effect, 100 complete control)
[6] = 125 g ai/ha, scale 0-100, preemergence
[7] = 250 g ai/ha, scale 0 to 100 (0 no effect, 100 complete control), visual, 12 to 14 days, preemergence
[8] = Postemergence, 500 g ai/ha, scale 0 to 100
[9] = Postemergence, 125 g ai/ha, scale 0 to 100, 0 no effect, 100 complete control
[10] = Preemergence, 500 g ai/ha, scale 0 to 100, 0 no effect, 100 complete control
[11] = postemergence, 62 g ai/ha, scale 0 to 100
[12] = Postemergence, 250 g ai/ha, scale 0 to 100, 0 no effect, 100 complete control
[13] = 500 g ai/ha, scale 0 to 100 (0 no effect, 100 complete control)
[14] = Postemergence, 500 g ai/ha, 0 to 100 scale, 0 no effect, 100 complete control
[15] = Postemergence, 2000 g ai/ha, 0 to 100 scale, 0 no effect, 100 complete control
[16] = Preemergence, 2000 g ai/ha, visual rating, 0 to 100 scale (0 no effect, 100 complete control)
[17] = preemergence, 500 g ai/ha, visual injury, 0 to 100 scale (0 no effect, 100 complete control)
[18] = postemergence, 500 g ai/ha, scale 0 to 100, 0 is no effect, 100 is complete control
[19] = 62 g ai/ha, preemergence, scale 0 to 100, 0 no effect, 100 complete control
[20] = 125 g ai/ha, scale 0 (no effect) to 100 (complete control), visual, 12 to 14 days, preemergence
[21] = 250 g ai/ha, scale 0-100, preemergence
[22] = 62 g ai/ha, preemergence, scale 0 to 100
[23] = 125 g ai/ha, scale 0 to 100 (0 no effect, 100 complete control)
[24] = 250 g ai/ha, scale of 0 to 100, 0 is no effect, 100 is complete control
[25] = 500 g ai/ha, scale 0 to 100 (0 no effect, 100 complete control), visual, 12 to 14 days, preemergence

SMILES: CCNC(=O)c1cccc(NC(=O)c2cc(C(C)(C)C)nn2CC(F)(F)F)c1 [Compound 31]
- Barnyardgrass plant response rating (barnyardgrass; [2]): 65
- Plant response rating, Barnyardgrass (barnyardgrass; [3]): 75
- Barnyardgrass plant response rating (barnyardgrass; [4]): 80
- Barnyardgrass plant response rating (barnyardgrass; [5]): 40
- Crabgrass, Large plant response rating (large crabgrass; [2]): 30
- Plant response rating, Crabgrass, Large (large crabgrass; [3]): 40
- Crabgrass, Large plant response rating (large crabgrass; [4]): 45
- Crabgrass, Large plant response rating (large crabgrass; [5]): 20
- Pigweed plant response rating (redroot pigweed; [2]): 55
- Plant response rating, Pigweed (redroot pigweed; [3]): 80
- Pigweed plant response rating (redroot pigweed; [4]): 80
- Pigweed plant response rating (redroot pigweed; [5]): 45
- Blackgrass plant response rating (blackgrass; Postemergence, 125 g ai/ha, scale 0 (no effect) to 100 (complete control)): 0
- Plant response rating, Blackgrass (blackgrass; Postemergence, 500 g ai/ha, visual rating after 13 to 15 days, scale 0 (no effect) to 100 (complete control)): 50
- Sedge, Umbrella plant response rating ([1]; visual rating, 13 to 15 days): 50
- Plant response rating (0 = no effect, 100 = complete control), Bermudagrass (bermudagrass; 62 g ai/ha, preemergence): 20
- Plant response rating, Bermudagrass (bermudagrass; [6]): 90
- Plant response rating, Bermudagrass (bermudagrass; [7]): 100
- Bermudagrass plant response rating (bermudagrass; [8]): 40
- Plant response rating, Bermudagrass (bermudagrass; [9]): 20
- Bermudagrass plant response rating (bermudagrass; Postemergence, 250 g ai/ha, scale 0 to 100): 20
- Bermudagrass plant response rating (bermudagrass; [10]): 100
- Plant response rating, Bermudagrass (bermudagrass; [11]): 10
- Plant response rating (0 = no effect, 100 = complete control), Cupgrass, Woolly (woolly cupgrass; 62 g ai/ha, preemergence): 0
- Plant response rating, Cupgrass, Woolly (woolly cupgrass; [6]): 0
- Plant response rating, Cupgrass, Woolly (woolly cupgrass; [7]): 30
- Cupgrass, Woolly plant response rating (woolly cupgrass; [8]): 60
- Plant response rating, Cupgrass, Woolly (woolly cupgrass; [9]): 30
- Plant response rating, Cupgrass, Woolly (woolly cupgrass; [12]): 40
- Cupgrass, Woolly plant response rating (woolly cupgrass; [10]): 60
- Plant response rating, Cupgrass, Woolly (woolly cupgrass; [11]): 30
- Plant response rating (0 = no effect, 100 = complete control), Goosegrass (goosegrass; 62 g ai/ha, preemergence): 30
- Plant response rating, Goosegrass (goosegrass; [6]): 30
- Plant response rating, Goosegrass (goosegrass; [7]): 40
- Goosegrass plant response rating (goosegrass; [8]): 40
- Plant response rating, Goosegrass (goosegrass; [9]): 30
- Plant response rating, Goosegrass (goosegrass; [12]): 40
- Goosegrass plant response rating (goosegrass; [10]): 90
- Plant response rating, Goosegrass (goosegrass; [11]): 30
- Rice plant response rating (rice; 62 g ai/ha, scale 0 to 100 (0 no effect, 100 complete control)): 0
- Rice plant response rating (rice; 125 g ai/ha, scale of 0 to 100, 0 is no effect, 100 is complete control): 10
- Plant response rating, Rice (rice; 250 g ai/ha, scale 0 to 100 (0 no effect, 100 complete control)): 40
- Plant response rating, Rice (rice; [13]): 50

SMILES: CCNC(=O)c1ccc(F)c(NC(=O)c2cc(C3(C)CC3)nn2CC)c1 [Compound 300]
- Barnyardgrass plant response rating (barnyardgrass; [14]): 75
- Plant response rating, Barnyardgrass (barnyardgrass; [15]): 90
- Barnyardgrass plant response rating (barnyardgrass; [16]): 100
- Barnyardgrass plant response rating (barnyardgrass; [17]): 90
- Crabgrass, Large plant response rating (large crabgrass; [14]): 55
- Plant response rating, Crabgrass, Large (large crabgrass; [15]): 90
- Crabgrass, Large plant response rating (large crabgrass; [16]): 100
- Crabgrass, Large plant response rating (large crabgrass; [17]): 90
- Pigweed plant response rating (redroot pigweed; [14]): 90
- Plant response rating, Pigweed (redroot pigweed; [15]): 100
- Pigweed plant response rating (redroot pigweed; [16]): 100
- Pigweed plant response rating (redroot pigweed; [17]): 95
- Blackgrass plant response rating (blackgrass; 125 g ai/ha, visual rating, scale 0 (no effect) to 100 (complete control), postemergence): 10
- Blackgrass plant response rating (blackgrass; [18]): 30
- Sedge, Umbrella plant response rating [1]: 90
- Plant response rating, Bermudagrass (bermudagrass; 31 g ai/ha, scale 0 to 100, 0 no effect, 100 complete control, last section of Table C (species set of preemergence test)): 80
- Plant response rating, Bermudagrass (bermudagrass; [19]): 95
- Plant response rating, Bermudagrass (bermudagrass; [20]): 100
- Plant response rating, Bermudagrass (bermudagrass; [21]): 100
- Plant response rating, Cupgrass, Woolly (woolly cupgrass; [22]): 20
- Plant response rating, Cupgrass, Woolly (woolly cupgrass; [20]): 50
- Plant response rating, Cupgrass, Woolly (woolly cupgrass; [21]): 60
- Plant response rating, Goosegrass (goosegrass; [22]): 85
- Plant response rating, Goosegrass (goosegrass; [20]): 100
- Plant response rating, Goosegrass (goosegrass; [21]): 100
- Rice plant response rating (rice; 62 g ai/ha, scale 0 to 100): 40
- Rice plant response rating (rice; [23]): 55
- Rice plant response rating (rice; [24]): 70
- Plant response rating, Rice (rice; [13]): 75

SMILES: CCNC(=O)c1ccc(F)c(NC(=O)C2CC(C(C)(C)C)=NN2CC)c1 (racemic) [Compound 269]
- Barnyardgrass plant response rating (barnyardgrass; [14]): 70
- Plant response rating, Barnyardgrass (barnyardgrass; [15]): 80
- Barnyardgrass plant response rating (barnyardgrass; [16]): 100
- Barnyardgrass plant response rating (barnyardgrass; [17]): 95
- Crabgrass, Large plant response rating (large crabgrass; [14]): 35
- Plant response rating, Crabgrass, Large (large crabgrass; [15]): 80
- Crabgrass, Large plant response rating (large crabgrass; [16]): 100
- Crabgrass, Large plant response rating (large crabgrass; [17]): 65
- Pigweed plant response rating (redroot pigweed; [14]): 35
- Plant response rating, Pigweed (redroot pigweed; [15]): 50
- Pigweed plant response rating (redroot pigweed; [16]): 100
- Pigweed plant response rating (redroot pigweed; [17]): 100
- Blackgrass plant response rating (blackgrass; postemergence, 125 g ai/ha, visual rating, scale 0 (no effect) to 100 (complete control)): 20
- Blackgrass plant response rating (blackgrass; [18]): 50
- Sedge, Umbrella plant response rating [1]: 80
- Plant response rating, Bermudagrass (bermudagrass; [19]): 100
- Plant response rating, Bermudagrass (bermudagrass; [20]): 100
- Plant response rating, Bermudagrass (bermudagrass; [21]): 100
- Bermudagrass plant response rating (bermudagrass; [10]): 100
- Plant response rating, Cupgrass, Woolly (woolly cupgrass; [22]): 10
- Plant response rating, Cupgrass, Woolly (woolly cupgrass; [20]): 40
- Plant response rating, Cupgrass, Woolly (woolly cupgrass; [21]): 60
- Plant response rating, Cupgrass, Woolly (woolly cupgrass; [25]): 85
- Plant response rating, Goosegrass (goosegrass; [22]): 70
- Plant response rating, Goosegrass (goosegrass; [20]): 85
- Plant response rating, Goosegrass (goosegrass; [21]): 95
- Plant response rating, Goosegrass (goosegrass; [25]): 100
- Rice plant response rating (rice; 62 g ai/ha, scale 0 to 100): 45
- Rice plant response rating (rice; [23]): 50
- Rice plant response rating (rice; [24]): 75
- Plant response rating, Rice (rice; [13]): 80
